In publication PMC6032016, “Synthesis, biological evaluation, and molecular modelling studies of potent human neutrophil elastase (HNE) inhibitors” (Journal of Enzyme Inhibition and Medicinal Chemistry, 2018):

Experiments:
HNE [1] = target: T1, HNE (Homo sapiens, UniProt P08246); assay: Kinetics of HNE inhibition (double-reciprocal Lineweaver–Burk plots); assay type: biochemical; conditions: Lineweaver–Burk plot of fluorogenic substrate hydrolysis
T1 construct: purchased Calbiochem
T1 sequence (P08246 30-267): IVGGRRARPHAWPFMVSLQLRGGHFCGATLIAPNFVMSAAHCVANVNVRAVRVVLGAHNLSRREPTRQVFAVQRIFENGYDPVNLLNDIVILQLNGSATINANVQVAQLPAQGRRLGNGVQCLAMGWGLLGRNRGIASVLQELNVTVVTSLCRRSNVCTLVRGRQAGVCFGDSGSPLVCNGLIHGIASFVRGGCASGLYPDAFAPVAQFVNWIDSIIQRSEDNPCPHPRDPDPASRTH
Excerpt: To better understand the mechanism of action of these isoxazolone HNE inhibitors, we performed kinetic experiments.
Figure 7. Kinetics of HNE inhibition by compounds 7d and 8d. Representative double reciprocal Lineweaver–Burk plots are shown from three independent experiments.

[2] = Analysis of compound stability: spontaneous hydrolysis in aqueous buffer; assay type: physicochemical; conditions: 25 °C, 0.05 M phosphate buffer, pH 7.3; read-out: t1/2 for spontaneous hydrolysis (converted)
Method: Spontaneous hydrolysis of selected derivatives was evaluated at 25 °C in 0.05 M phosphate buffer, pH 7.3. Kinetics of hydrolysis were monitored by measuring changes in the absorbance spectra over time using a SpectraMax Plus microplate spectrophotometer (Molecular Devices, Sunnyvale, CA). Absorbance (At) at the characteristic absorption maxima of each compound was measured at the indicated times until no further absorbance decreases occurred (A∞)[52]. Using these measurements, we created semilogarithmic plots of log(At–A∞) versus time, and k′ values were determined from the slopes of these plots. Half-conversion times were calculated using t1/2 = 0.693/k′, as described previously[36]^,[37].

[3] = target: T2, HNE (human neutrophil elastase) (Homo sapiens, UniProt P08246); assay: HNE inhibition assay (fluorogenic substrate cleavage); assay type: biochemical; conditions: mean ± SD of three independent experiments; NA: no inhibitory activity at the highest concentration tested (50 µM)
T2 construct: purchased Calbiochem
T2 sequence (P08246 30-267): T1 sequence (P08246 30-267)
Method: Compounds were dissolved in 100% DMSO at 5 mM stock concentrations. […] The HNE inhibition assay was performed in black flat-bottom 96-well microtiter plates. Briefly, a buffer solution containing 200 mM Tris–HCl, pH 7.5, 0.01% bovine serum albumin, and 0.05% Tween-20 and 20 mU/mL of HNE (Calbiochem) was added to wells containing different concentrations of each compound. The reaction was initiated by addition of 25 µM elastase substrate (N-methylsuccinyl-Ala-Ala-Pro-Val-7-amino-4-methylcoumarin, Calbiochem) in a final reaction volume of 100 µl/well. Kinetic measurements were obtained every 30 s for 10 min at 25 °C using a Fluoroskan Ascent FL fluorescence microplate reader (Thermo Electron, MA) with excitation and emission wavelengths set at 355 and 460 nm, respectively. For all compounds tested, the concentration of inhibitor that caused 50% inhibition of the enzymatic reaction (IC50) was calculated by plotting % inhibition versus logarithm of inhibitor concentration (at least six points). The data are presented as the mean values of at least three independent experiments with relative standard deviations of <15%.

HNE [4] = target: T1, HNE; assay: Reversibility of HNE inhibition over extended periods of time; assay type: biochemical; conditions: 8 µM compound
Method: The inhibition was maximal for up to 60 min with compound 7e and >120 min for the other tested compounds (4a, 4b, and 7a). However, inhibition by the compounds was eventually reversed, and full recovery of HNE activity was observed by 4 h after treatment with 8 µM of the compound (e.g. see Figure 6).
Figure 6. […] HNE was incubated with the indicated compounds (8 µM), and kinetic curves monitoring substrate cleavage catalysed by HNE over time are shown. Representative curves are from two independent experiments.

CC(=O)Nc1ccc(-c2c(C)n(C(=O)c3cccc(C)c3)oc2=O)cc1 [Compound 7d, N-(4-(3-methyl-2-(3-methylbenzoyl)-5-oxo-2,5-dihydroisoxazol-4-yl)phenyl)acetamide]
mechanism of HNE inhibition (HNE [1]): competitive | half-life [2]: 3.9 h | IC50 [3]: 50 ± 20 nM | time after which HNE inhibition was reversed (HNE [4]): ~30 min | melting point: 159 to 160 °C
